For test [1], the target named is T1, Protein arginine N-methyltransferase 1 (Homo sapiens, UniProt Q99873). Briefly: Inhibition of PRMT1 (unknown origin) using Histone H4 as substrate incubated for 1 hr by fluorescence based analysis.
The target in test [2] is T1, Protein arginine N-methyltransferase 1.
For test [3] the target is unchanged. Kind of test: Inhibition of 6His-tagged human recombinant PRMT1 using Histone H4 as substrate.
The target is the same in test [4]. Kind of test: Inhibition of human PRMT1 using [3H]methylated biotin-labeled peptide as substrate by scintillation proximity assay.

The values that follow come from ChEMBL document CHEMBL5608239, “Structure, Function, and Activity of Small Molecule and Peptide Inhibitors of Protein Arginine Methyltransferase 1” (J Med Chem, 2024).

Numbered stars: 1 amine (or outer) side, 2 acyl side, 3 side chain; on linkers, the order of the positions; unused ones are H or OH. Square brackets hold non-standard residues; d marks the D form. Peptide text beside a SMILES is read from it. X1 = N=C(NCCC[C@H](N[*:1])C(=O)[*:2])NCCC[C@H]1O[C@@H](n2cnc3c(N)ncnc32)[C@H](O)[C@@H]1O Some results are limits rather than exact numbers.

Usually IC50 stands for the point on the concentration scale where inhibition reaches its midpoint.

T1 sequence (Q99873 whole entry): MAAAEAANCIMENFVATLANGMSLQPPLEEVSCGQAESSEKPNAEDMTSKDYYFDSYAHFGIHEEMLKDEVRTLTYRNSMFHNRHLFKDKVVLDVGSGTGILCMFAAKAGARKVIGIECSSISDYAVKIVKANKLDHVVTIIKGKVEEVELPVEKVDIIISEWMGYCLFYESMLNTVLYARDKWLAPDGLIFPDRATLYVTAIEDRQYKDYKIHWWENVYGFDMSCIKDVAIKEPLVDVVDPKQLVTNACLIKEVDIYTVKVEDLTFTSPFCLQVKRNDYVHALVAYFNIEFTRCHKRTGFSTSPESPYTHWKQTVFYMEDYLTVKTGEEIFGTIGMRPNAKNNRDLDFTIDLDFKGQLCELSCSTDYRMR

On to `N=C(NCCCCC(N)C(N)=O)NCCCSC[C@H]1O[C@@H](n2cnc3c(N)ncnc32)[C@H](O)[C@@H]1O` (some centres undefined), for which the IC50 in test [1] and in test [2] was 3 µM in each case.

Regarding `C[C@@H](O)[C@H](NC(=O)CNC(=O)CNC(=O)[C@H](CCCNC(=N)NCCC[C@H](N)C(=O)O)NC(=O)[C@H](CO)NC(=O)[C@@H](NC(=O)CNC(=O)CNC(=O)[C@@H](N)Cc1c[nH]c2ccccc12)[C@@H](C)O)C(=O)NCC(=O)NCC(=O)N[C@@H](Cc1c[nH]c2ccccc12)C(=O)O`, in test [3], the IC50 was greater than 500 µM.

Consider `CC(=O)N[C@@H](CO)C(=O)NCC(=O)N[C@@H](CCCNC(=N)NCCC[C@H]1O[C@@H](n2cnc3c(N)ncnc32)[C@H](O)[C@@H]1O)C(=O)NCC(=O)N[C@@H](CCCCN)C(=O)NCC(=O)NCC(=O)N[C@@H](CCCCN)C(N)=O` (Ac-SG[X1]GKGGK-NH2), for which, in test [4], the IC50 amounted to 1.33 µM.
